EPA's ToxRefDB 2

What was measured:
rat [1] = settings: Sub-acute repeat dose toxicity, sprague dawley, Oral, Gavage/Intubation, dose end: 29 day, group: systemic
primate [2] = settings: Sub-acute repeat dose toxicity; Oral; Gavage/Intubation; dose end: 34 day; group: systemic; systemic / pathology microscopic / intestine small / erosion + systemic / pathology microscopic / intestine small / hemorrhage + systemic / …
rat [3] = settings: Sub-acute repeat dose toxicity, sprague dawley, Oral, Gavage/Intubation, dose end: 14 day, group: systemic
primate [4] = settings: Sub-acute repeat dose toxicity, Oral, Gavage/Intubation, dose end: 23 day, group: systemic
rat [5] = settings: Carcinogenicity, fischer, Oral, Feed, dose end: 2 year, group: systemic
mouse [6] = settings: Combined chronic toxicity/carcinogenicity, b6c3f1, Oral, Gavage/Intubation, dose end: 2 year, group: systemic
mouse [7] = settings: Subchronic oral toxicity in rodents, b6c3f1, Gavage/Intubation, dose end: 13 week, group: systemic, systemic / pathology microscopic / kidney / vacuolization cytoplasmic + systemic / pathology microscopic / liver / vacuolization cytoplasmic…
rat [8] = settings: Subchronic oral toxicity in rodents, fischer, Gavage/Intubation, dose end: 13 week, group: systemic
rat [9] = settings: Combined chronic toxicity/carcinogenicity, fischer, Oral, Gavage/Intubation, dose end: 2 year, group: systemic
mouse [10] = settings: Subchronic oral toxicity in rodents, b6c3f1, Gavage/Intubation, dose end: 14 week, group: systemic
rat [11] = settings: Subchronic oral toxicity in rodents, fischer, Gavage/Intubation, dose end: 14 week, group: systemic
mouse [12] = settings: Carcinogenicity; b6c3f1; Oral; Gavage/Intubation; dose end: 105 week; group: systemic; systemic / pathology microscopic / nose / dilatation + systemic / pathology microscopic / nose / hyperplasia + systemic / pathology …
rat [13] = settings: Carcinogenicity, fischer, Oral, Gavage/Intubation, dose end: 105 week, group: systemic
rat [14] = settings: Multigenerational reproductive toxicity study, sprague dawley, Oral, Gavage/Intubation, dose end: 2 generation
rat [15] = settings: Prenatal developmental toxicity study, sprague dawley, Oral, Gavage/Intubation, dose end: 19 GD
[16] = systemic / clinical chemistry / [other] / [other] + systemic / clinical chemistry / protein / protein + systemic / hematology / erythrocyte…
[17] = systemic / hematology / platelet / platelet + systemic / in life observation / body weight / body weight gain + systemic / in life …
[18] = systemic / in life observation / body weight / body weight gain
[19] = systemic / clinical chemistry / alanine aminotransferase (alt/sgpt) / alanine aminotransferase (alt/sgpt) + systemic / clinical chemistry / …
[20] = systemic / in life observation / clinical signs / emesis
[21] = systemic / in life observation / body weight / body weight + systemic / pathology microscopic / urinary bladder / hyperplasia
[22] = systemic / in life observation / body weight / body weight + systemic / pathology microscopic / urinary bladder / hyperplasia + systemic / …
[23] = systemic / in life observation / body weight / body weight + systemic / pathology microscopic / kidney / vacuolization cytoplasmic + …
[24] = systemic / pathology microscopic / kidney / vacuolization cytoplasmic + systemic / pathology microscopic / liver / vacuolization cytoplasmic…
[25] = systemic / in life observation / body weight / body weight + systemic / in life observation / mortality / mortality
[26] = systemic / in life observation / body weight / body weight + systemic / in life observation / body weight / body weight gain
[27] = systemic / organ weight / liver / relative to body weight
[28] = systemic / clinical chemistry / cytochrome p450, nos / cytochrome p450, nos
[29] = systemic / organ weight / liver / absolute + systemic / organ weight / liver / relative to body weight + systemic / pathology microscopic / …
[30] = systemic / pathology microscopic / nose / atrophy + systemic / pathology microscopic / nose / metaplasia
[31] = group: offspring, developmental / developmental landmark / nipple development / nipple development + systemic / in life observation / body weight / offspring…
[32] = group: offspring, systemic / pathology microscopic / stomach / hyperkeratosis + systemic / pathology microscopic / stomach / hyperplasia
[33] = group: parental, systemic / in life observation / body weight / body weight + systemic / in life observation / body weight / dam weight + systemic / in life …
[34] = group: parental, systemic / organ weight / liver / relative to body weight + systemic / pathology microscopic / stomach / hyperkeratosis + systemic / …
[35] = group: reproductive, reproductive / offspring survival early / live fetuses / live fetuses
[36] = group: developmental, developmental / developmental malformation / bone / unossified + systemic / in life observation / body weight / fetal weight
[37] = group: maternal, systemic / in life observation / body weight / body weight + systemic / in life observation / body weight / body weight gain + systemic / in…

Molecule `NC(=O)n1c(O)c(C(=O)c2ccc(Cl)s2)c2cc(Cl)ccc21` has an LOAEL (rat [1]; [16]) of over 30 mg/kg/day, an NEL (rat [1]; [16]) of 3 mg/kg/day and an NOAEL (rat [1]; [16]) of at least 30 mg/kg/day. For the same molecule, the LEL (rat [1]; systemic / clinical chemistry / protein / protein + systemic / hematology / erythrocyte (rbc) count differential / erythrocyte (rbc) + …) was 10 mg/kg/day, the LEL (primate [2]) was 3 mg/kg/day and the LOAEL (primate [2]) was over 10 mg/kg/day. It also gave an NEL (primate [2]) of 1 mg/kg/day, an NOAEL (primate [2]) of at least 10 mg/kg/day and an LOAEL (rat [3]; [17]) of over 100 mg/kg/day. The NOAEL (rat [3]; [17]) was at least 100 mg/kg/day, the LEL (rat [3]; [18]) was 10 mg/kg/day and the NEL (rat [3]; [18]) was under 10 mg/kg/day. The LOAEL (primate [4]; [19]) was over 30 mg/kg/day, the NOAEL (primate [4]; [19]) was at least 30 mg/kg/day and the LEL (primate [4]; [20]) was 1 mg/kg/day. The NEL (primate [4]; [20]) was under 1 mg/kg/day.
`Cc1ccccc1N.Cl` [2-Methylaniline hydrochloride] was tested, and the LOAEL (rat [5]; [21]) was 300 mg/kg/day, the NOAEL (rat [5]; [21]) was under 300 mg/kg/day and the LEL (rat [5]; [22]) was 300 mg/kg/day. It also gave an NEL (rat [5]; [22]) of under 300 mg/kg/day.
Molecule `CC(=O)OC(C)c1ccccc1` (stereo not drawn) [Benzenemethanol, alpha-methyl-, acetate] has an LOAEL (mouse [6]; [23]) of 1000 mg/kg/day, an NOAEL (mouse [6]; [23]) of 500 mg/kg/day and an LEL (mouse [6]; [24]) of 500 mg/kg/day. The NEL (mouse [6]; [24]) was under 500 mg/kg/day, the LEL (mouse [7]) was 2000 mg/kg/day and the LOAEL (mouse [7]) was 2000 mg/kg/day. It also gave an NEL (mouse [7]) of 1000 mg/kg/day, an NOAEL (mouse [7]) of 1000 mg/kg/day and an LOAEL (rat [8]; systemic / in life observation / body weight / body weight) of 4000 mg/kg/day. For the same molecule, the NEL (rat [8]; [25]) was 2000 mg/kg/day, the NOAEL (rat [8]; [25]) was 2000 mg/kg/day and the LEL (rat [8]; systemic / in life observation / body weight / body weight + systemic / in life observation / mortality / mortality + systemic / pathology …) was 4000 mg/kg/day. The LEL (rat [9]; [26]) was 1000 mg/kg/day, the NEL (rat [9]; [26]) was under 1000 mg/kg/day and the LOAEL (rat [9]; systemic / in life observation / body weight / body weight + systemic / pathology microscopic / kidney / nephropathy) was 2000 mg/kg/day. It also gave an NOAEL (rat [9]; systemic / in life observation / body weight / body weight + systemic / pathology microscopic / kidney / nephropathy + systemic / in life …) of 1000 mg/kg/day.
For `C/C=C/c1ccc(O)c(OC)c1` [Isoeugenol], the LEL (mouse [10]; [27]) was 37.5 mg/kg/day, the NEL (mouse [10]; [27]) was under 37.5 mg/kg/day and the LOAEL (mouse [10]; systemic / pathology microscopic / nose / atrophy + systemic / in life observation / body weight / body weight + systemic / in life …) was 600 mg/kg/day. It also gave an NOAEL (mouse [10]; systemic / pathology microscopic / nose / atrophy + systemic / organ weight / lung / absolute) of 300 mg/kg/day, an LEL (rat [11]; [28]) of 75 mg/kg/day and an NEL (rat [11]; [28]) of 37.5 mg/kg/day. The LOAEL (rat [11]; [29]) was 600 mg/kg/day, the NOAEL (rat [11]; [29]) was 300 mg/kg/day and the LEL (mouse [12]) was 75 mg/kg/day. It also gave an LOAEL (mouse [12]) of 75 mg/kg/day, an NEL (mouse [12]) of under 75 mg/kg/day and an NOAEL (mouse [12]) of under 75 mg/kg/day. For the same molecule, the LEL (rat [13]; [30]) was 75 mg/kg/day, the LOAEL (rat [13]; [30]) was 150 mg/kg/day and the NEL (rat [13]; [30]) was under 75 mg/kg/day. For the same molecule, the NOAEL (rat [13]; systemic / pathology microscopic / nose / atrophy + systemic / pathology microscopic / nose / metaplasia + systemic / pathology microscopic…) was 75 mg/kg/day, the LOAEL (rat [14]; [31]) was over 700 mg/kg/day and the NOAEL (rat [14]; [31]) was at least 700 mg/kg/day. For the same molecule, the LEL (rat [14]; [32]) was 70 mg/kg/day, the NEL (rat [14]; [32]) was under 70 mg/kg/day and the LOAEL (rat [14]; [33]) was over 700 mg/kg/day. The NOAEL (rat [14]; [33]) was at least 700 mg/kg/day, the LEL (rat [14]; [34]) was 70 mg/kg/day and the NEL (rat [14]; [34]) was under 70 mg/kg/day. It also gave an LEL (rat [14]; [35]) of 700 mg/kg/day, an LOAEL (rat [14]; [35]) of over 700 mg/kg/day and an NEL (rat [14]; [35]) of 230 mg/kg/day. For the same molecule, the NOAEL (rat [14]; [35]) was at least 700 mg/kg/day, the LEL (rat [15]; [36]) was 1000 mg/kg/day and the LOAEL (rat [15]; [36]) was 1000 mg/kg/day. It also gave an NEL (rat [15]; [36]) of 500 mg/kg/day, an NOAEL (rat [15]; [36]) of 500 mg/kg/day and an LEL (rat [15]; [37]) of 250 mg/kg/day. It also gave an LOAEL (rat [15]; [37]) of 250 mg/kg/day, an NEL (rat [15]; [37]) of under 250 mg/kg/day and an NOAEL (rat [15]; [37]) of under 250 mg/kg/day.
